From US20240408223A1 (REGENERON PHARMACEUTICALS, INC., priority 2017, published 2024)
Values after ≈ are worked out from the molar mass of the structure shown. *1 amine or outer side, *2 acyl side, *3 side chain or, on linkers, in order; H or OH if unused. Where a SMILES comes first, the peptide text is derived from it. [ ]: non-standard residue; d: D form. The star is where a group is joined. X2 = O=C(COC1CCCCCc2c1nnn2[C@@H]1O[C@H](CO)[C@H](O)[C@H](O)[C@H]1O)*; NH(1-deoxy-D-glucityl) = OC[C@@H](O)[C@@H](O)[C@H](O)[C@@H](O)CN*; Dolaproine = CO[C@@H]([C@@H]1CCCN1)[C@@H](C)C(=O)O; Dil = CC[C@H](C)[C@H](NC)[C@@H](CC(=O)O)OC; PABC = O=C(OCc1ccc(N[*:1])cc1)[*:2]; DBCO = C1#Cc2ccccc2N(*)Cc2ccccc21; X1 = C[C@@H](N*)[C@@H](O)c1ccccc1; Cit = NC(=O)NCCC[C@H](N)C(=O)O; PEG4 = NCCOCCOCCOCCOCCC(=O)O; Suc = O=C(CCC(=O)[*:2])[*:1]; NMeV = CN[C@H](C(=O)O)C(C)C

Experiments:
[1] = pH stability in buffers, determined by LC-MS; assay type: physicochemical; details: pH7.4 and 8 buffer, RT, Table 3-1
Protocol: pH stability was assessed as follows. 0.1 mg of sample was dissolved into 0.2-0.3 mL of DMSO, and the resulting solution was added dropwise into different pH buffers (1 mL) while maintain clear solutions during testing time period. The samples were collected from several time points (e.g., over 72 hours), and pH stability was determined by LC-MS. pH buffer was prepared as follows: pH 8.0 sodium borate buffer: Add 9.534 g Sodium borate decahydrate, 1.461 g Sodium chloride, and 0.393 g DTPA to 900 mL distilled water, make sure all powers dissolve completely, then make final volume to 1 L by adding water. pH 7.4 sodium borate buffer: Add […], 9.534 g Sodium borate decahydrate, 1.461 g Sodium chloride, and 0.393 g DTPA to 900 mL distilled water, make sure all powers dissolve completely, then make final volume to 1 L by adding water. pH 5.0 succinate acid buffer: Add 10 mM succinate acid to 150 mL distilled water, and then change the pH to pH5.0 by adding 0.5M NaOH, then make final volume to 250 mL by adding water. pH 7.4 PBS buffer: commercially available. Stability was assessed at 72 hours by LCMS.

Human liver Cathepsin B = Human liver Cathepsin B (Homo sapiens, UniProt P07858); experiment: Cathepsin B cleavage assay of linker-payloads; details: Table 1D
Protocol: For the assay, the linker-payload stock solution (10 mM of linker-payload in DMSO) was added into a solution of 100 mM NaOAc, 10 mM dithiothreitol, at pH5 to obtain a 50 μM substrate solution. […] The Cathepsin B and substrate solution was mixed with and without 10 mM of a Cathepsin B inhibitor (CA074; APE Bio, Cat #A1926), and incubated at 37° C. for 4 hours. Following the 4 hour incubation, acetic acid and then acetonitrile were added to stop the reaction. The quenched samples then underwent centrifugation at 14,000 rpm. Aliquots of the resultant supernatants were then diluted with equal volume of water and analyzed by LC/MS to determine the amount of payload released.

Protocol for physchem: The DMSO solution (1 mg/mL, 0.5 mL) was diluted with water (4.5 mL) to generate solution A (0.1 mg/mL, 5 mL, 0.5 mg). Solution A (0.1 mg/mL, 0.5 mL) was diluted with water (4.5 mL) to generate solution B (0.01 mg/mL, 5 mL, 0.05 mg). Solution B (0.01 mg/mL, 0.5 mL) was diluted with water (4.5 mL) to generate solution C (1 μg/mL, 5 mL, 5 μg). Solution C (1 μg/mL, 0.5 mL) was diluted with water (4.5 mL) to generate solution D (0.1 μg/mL, 5 mL, 0.5 μg). The testing sample (0.05 mg) was suspended in water (1 mL), and was sonicated for 5-30 min to dissolve the sample. If no clear solution was observed, the resulting suspension was centrifuged and the clear supernatant solution was collected for analysis. All the standard solutions A, B, C, D and sample solutions were tested using same method on the same LC-MS instrument. Solubility was assessed by LCMS and calculated based on a standard curve.

For `CC[C@H](C)[C@@H]([C@@H](CC(=O)N1CCC[C@H]1[C@H](OC)[C@@H](C)C(=O)N[C@H](C)[C@@H](O)c1ccccc1)OC)N(C)C(=O)[C@@H](NC(=O)[C@H](C(C)C)N(C)C(=O)OCc1ccc(NC(=O)[C@H](CCCNC(N)=O)NC(=O)[C@@H](NC(=O)[C@@H](CCCCNC(=O)COC2CCCCCc3c2nnn3[C@@H]2O[C@H](CO)[C@H](O)[C@H](O)[C@H]2O)NC(=O)CCOCCOCCOCCOCCNC(=O)CCC(=O)N2Cc3ccccc3C#Cc3ccccc32)C(C)C)cc1)C(C)C` (stereo partly drawn) [Ie-1] ({DBCO-Suc-PEG4}-[dK](X2)V[Cit][PABC][NMeV]V[Dil][Dolaproine]-X1), the “pH Stability” value [1] was “Y (stable in pH7.4 and 8 buffer at RT for more than 3 days)”, the solubility (physchem) was 400 µg/mL (≈ 186 µM) and the “CapB cleavage rate (%) at 4 hrs” value (Human liver Cathepsin B) was 72%.

In the case of `CC[C@H](C)[C@@H]([C@@H](CC(=O)N1CCC[C@H]1[C@H](OC)[C@@H](C)C(=O)N[C@H](C)[C@@H](O)c1ccccc1)OC)N(C)C(=O)[C@@H](NC(=O)[C@H](C(C)C)N(C)C(=O)OCc1ccc(NC(=O)[C@H](CCCNC(N)=O)NC(=O)[C@@H](NC(=O)[C@@H](CCC(=O)NC[C@H](O)[C@@H](O)[C@H](O)[C@H](O)CO)NC(=O)CCOCCOCCOCCOCCNC(=O)CCC(=O)N2Cc3ccccc3C#Cc3ccccc32)C(C)C)cc1)C(C)C` [Ig] ({DBCO-Suc-PEG4}-[dE](NH(1-deoxy-D-glucityl))V[Cit][PABC][NMeV]V[Dil][Dolaproine]-X1), the “pH Stability” value [1] is reported as “Y (stable in pH7.4 and 8 buffer at RT for more than 3 days)”, the solubility (physchem) is reported as 280 µg/mL (≈ 144 µM) and the “CapB cleavage rate (%) at 4 hrs” value (Human liver Cathepsin B) is reported as 70%.
